# “And” between values parts separate entries of the source, which are not always exact repeats. Equal entries are not always repeated.
# Columns and labels:
# [1] = biological target: T1, Somatostatin receptor type 5 (Rattus norvegicus, UniProt P30938)
# T1 sequence (P30938 whole entry): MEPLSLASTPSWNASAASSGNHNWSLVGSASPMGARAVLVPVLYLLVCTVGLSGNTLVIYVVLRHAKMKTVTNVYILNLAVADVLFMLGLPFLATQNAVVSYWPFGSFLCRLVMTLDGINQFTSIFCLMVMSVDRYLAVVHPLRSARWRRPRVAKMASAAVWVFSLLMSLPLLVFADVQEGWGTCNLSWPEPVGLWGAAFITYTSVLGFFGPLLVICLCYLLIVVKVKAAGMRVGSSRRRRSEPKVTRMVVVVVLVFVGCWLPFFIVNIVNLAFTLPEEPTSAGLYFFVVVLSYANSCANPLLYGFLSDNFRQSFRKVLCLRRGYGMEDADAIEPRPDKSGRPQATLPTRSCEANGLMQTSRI
# [2] = biological target: Somatostatin receptor type 2 (Rattus norvegicus, UniProt P30680)
# [3] = biological target: Somatostatin receptor type 3 (Rattus norvegicus, UniProt P30936)
# [4] = biological target: Somatostatin receptor type 1 (Rattus norvegicus, UniProt P28646)
# Somatostatin receptor type 1, sequence (P28646 whole entry): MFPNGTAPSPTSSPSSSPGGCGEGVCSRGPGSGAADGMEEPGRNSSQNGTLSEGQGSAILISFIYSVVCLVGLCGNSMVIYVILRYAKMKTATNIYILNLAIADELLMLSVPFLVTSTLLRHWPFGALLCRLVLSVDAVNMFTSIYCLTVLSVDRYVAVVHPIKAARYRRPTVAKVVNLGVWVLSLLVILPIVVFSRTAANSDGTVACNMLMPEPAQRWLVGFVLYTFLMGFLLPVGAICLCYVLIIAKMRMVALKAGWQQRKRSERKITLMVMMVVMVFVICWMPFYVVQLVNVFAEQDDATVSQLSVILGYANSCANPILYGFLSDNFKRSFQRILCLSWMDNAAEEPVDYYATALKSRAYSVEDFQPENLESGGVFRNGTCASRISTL
# Somatostatin receptor type 3, sequence (P30936 whole entry): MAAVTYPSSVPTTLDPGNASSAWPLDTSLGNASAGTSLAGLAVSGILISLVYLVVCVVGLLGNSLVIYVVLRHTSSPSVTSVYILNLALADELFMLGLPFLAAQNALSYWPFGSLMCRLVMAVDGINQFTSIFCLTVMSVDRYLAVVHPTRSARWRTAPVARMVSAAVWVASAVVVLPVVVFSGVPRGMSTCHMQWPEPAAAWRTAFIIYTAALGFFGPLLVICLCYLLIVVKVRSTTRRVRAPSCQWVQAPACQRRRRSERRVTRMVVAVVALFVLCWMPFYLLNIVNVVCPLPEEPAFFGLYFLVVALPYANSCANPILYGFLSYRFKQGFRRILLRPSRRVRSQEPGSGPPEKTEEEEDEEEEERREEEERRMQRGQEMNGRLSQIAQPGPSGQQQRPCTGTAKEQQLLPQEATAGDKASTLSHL
# Somatostatin receptor type 2, sequence (P30680 whole entry): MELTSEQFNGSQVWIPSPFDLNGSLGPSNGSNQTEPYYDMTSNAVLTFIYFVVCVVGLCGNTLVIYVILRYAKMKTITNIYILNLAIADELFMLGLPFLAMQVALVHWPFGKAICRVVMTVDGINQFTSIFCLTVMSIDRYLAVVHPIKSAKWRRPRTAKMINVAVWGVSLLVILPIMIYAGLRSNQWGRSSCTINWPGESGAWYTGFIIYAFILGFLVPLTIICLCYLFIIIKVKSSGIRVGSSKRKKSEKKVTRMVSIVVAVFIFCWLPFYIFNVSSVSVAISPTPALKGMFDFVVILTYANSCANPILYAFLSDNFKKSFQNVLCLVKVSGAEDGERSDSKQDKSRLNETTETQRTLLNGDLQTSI
SMILES,Ki [1],Ki [2] [nM],Ki [3] [nM],Ki [4] [nM]
C[C@H](N)C(=O)NCC(=O)N[C@@H]1CSSC[C@@H](C(=O)O)NC(=O)[C@H](CO)NC(=O)[C@@H]([C@@H](C)O)NC(=O)[C@H](Cc2ccccc2)NC(=O)[C@@H]([C@@H](C)O)NC(=O)[C@H](CCCCN)NC(=O)[C@@H](Cc2c[nH]c3ccccc23)NC(=O)[C@H](Cc2ccccc2)NC(=O)[C@@H](Cc2ccccc2)NC(=O)[C@H](CC(N)=O)NC(=O)[C@@H](CCCCN)NC1=O,5 nM,,,
CC(=O)N[C@@H](Cc1ccc([N+](=O)[O-])cc1)C(=O)N[C@H]1CSSC[C@@H](C(=O)N[C@@H](Cc2ccc(O)cc2)C(N)=O)NC(=O)[C@H]([C@@H](C)O)NC(=O)[C@H](CCCCN)NC(=O)[C@@H](Cc2c[nH]c3ccccc23)NC(=O)[C@H](Cc2ccc(O)cc2)NC1=O [AcNH-4-NO2-Phe-c[Cys-Tyr-D-Trp-Lys-Thr-Cys]-Tyr-NH2],,0.1,1000,
CC(=O)N[C@H](Cc1ccc([N+](=O)[O-])cc1)C(=O)N[C@H]1CSSC[C@H](C(=O)N[C@@H](C(N)=O)[C@H](C)O)NC(=O)[C@@H](C(C)C)NC(=O)[C@H](CCCCN)NC(=O)[C@@H](Cc2c[nH]c3ccccc23)NC(=O)[C@H](Cc2ccc(O)cc2)NC1=O [AcNH-4-NO2-Phe-c[Cys-Tyr-D-Trp-Lys-Thr-Cys]-Tyr-NH2],2.2 nM,,,
CC(=O)N[C@@H](Cc1ccc([N+](=O)[O-])cc1)C(=O)N[C@@H]1CSSC[C@@H](C(=O)N[C@@H](Cc2ccc(O)cc2)C(N)=O)NC(=O)[C@H]([C@@H](C)O)NC(=O)[C@H](CCCCN)NC(=O)[C@@H](Cc2c[nH]c3ccccc23)NC(=O)[C@H](Cc2ccc(O)cc2)NC1=O [AcNH-4-NO2-Phe-c[D-Cys-Tyr-D-Trp-Lys-Thr-Cys]-Tyr-NH2],,0.3,100,1000
CC(=O)N[C@H](Cc1ccc([N+](=O)[O-])cc1)C(=O)N[C@@H]1CSSC[C@H](C(=O)N[C@@H](C(N)=O)[C@H](C)O)NC(=O)[C@@H](C(C)C)NC(=O)[C@H](CCCCN)NC(=O)[C@@H](Cc2c[nH]c3ccccc23)NC(=O)[C@H](Cc2ccc(O)cc2)NC1=O [AcNH-4-NO2-Phe-c[D-Cys-Tyr-D-Trp-Lys-Thr-Cys]-Tyr-NH2],2.5 nM,,,
CC(C)[C@@H]1NC(=O)[C@H](CCCCN)NC(=O)[C@@H](Cc2c[nH]c3ccccc23)NC(=O)[C@H](Cc2ccc(O)cc2)NC(=O)[C@@H](NC(=O)[C@@H](N)Cc2ccc([N+](=O)[O-])cc2)CSSC[C@@H](C(=O)N[C@@H](Cc2ccc(O)cc2)C(N)=O)NC1=O [H2N-4-NO2-Phe-c[Cys-Tyr-D-Trp-Lys-Val-Cys]-Tyr-Nh2],,0.2,300,1000
CC(C)[C@H]1NC(=O)[C@H](CCCCN)NC(=O)[C@@H](Cc2c[nH]c3ccccc23)NC(=O)[C@H](Cc2ccc(O)cc2)NC(=O)[C@@H](NC(=O)[C@@H](N)Cc2ccc([N+](=O)[O-])cc2)CSSC[C@H](C(=O)N[C@@H](C(N)=O)[C@H](C)O)NC1=O [H2N-4-NO2-Phe-c[Cys-Tyr-D-Trp-Lys-Val-Cys]-Tyr-Nh2],0.1 nM and 0.42 nM,,,
CC(C)[C@@H]1NC(=O)[C@H](CCCCN)NC(=O)[C@@H](Cc2c[nH]c3ccccc23)NC(=O)[C@H](Cc2ccc(O)cc2)NC(=O)[C@H](NC(=O)[C@@H](N)Cc2ccc([N+](=O)[O-])cc2)CSSC[C@@H](C(=O)N[C@@H](Cc2ccc(O)cc2)C(N)=O)NC1=O [H2N-4-NO2-Phe-c[D-Cys-Tyr-D-Trp-Lys-Val-Cys]-Tyr-Nh2],,12.9,1000,1000
CC(C)[C@H]1NC(=O)[C@H](CCCCN)NC(=O)[C@@H](Cc2c[nH]c3ccccc23)NC(=O)[C@H](Cc2ccc(O)cc2)NC(=O)[C@H](NC(=O)[C@@H](N)Cc2ccc([N+](=O)[O-])cc2)CSSC[C@H](C(=O)N[C@@H](C(N)=O)[C@H](C)O)NC1=O [H2N-4-NO2-Phe-c[D-Cys-Tyr-D-Trp-Lys-Val-Cys]-Tyr-Nh2],18.1 nM,,,

# From BindingDB's records for PubMed 8863814 (Cyenamid Agricultural Research Center, 1996)
